# In ChEMBL document CHEMBL1201862, “PubChem BioAssay data set” (2004):
#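 Exposure lasted 48 hours, with cells grown in 96-well plates and compounds tested at five concentrations. The concentration for 50% growth inhibition is given as GI50.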 Calls of active or inactive are those of the source. Cut-off read from the data, not from the text of the source: active = GI50 up to about 1.1 µM and inactive = higher.
# Experiments:
# Test in all cases: NCI tumour cell line growth inhibition, 48 h
# A498 = test system: A498
# LOX IMVI = test system: LOX IMVI
# NCI-H23 = test system: NCI-H23
# KM12 = test system: KM12
# NCI-H226 = test system: NCI-H226
# NCI-H460 = test system: NCI-H460
# M14 = test system: M14
# ACHN = test system: ACHN
# SW-620 = test system: SW-620
# T47D = test system: T47D
# NCI/ADR-RES = test system: NCI/ADR-RES
# RXF 393 = test system: RXF 393
# CAKI-1 = test system: CAKI-1
# MOLT-4 = test system: MOLT-4
# SN12C = test system: SN12C
# SF-295 = test system: SF-295
# HT-29 = test system: HT-29
# Malme-3M = test system: Malme-3M
# UACC-62 = test system: UACC-62
# OVCAR-8 = test system: OVCAR-8
# Hs-578T = test system: Hs-578T
# A549 = test system: A549
# HCT-15 = test system: HCT-15
# CCRF-CEM = test system: CCRF-CEM
# RPMI-8226 = test system: RPMI-8226
# SR = test system: SR
# SF-539 = test system: SF-539
# HCT-116 = test system: HCT-116
# MDA-MB-435 = test system: MDA-MB-435
# K562 = test system: K562
# SF-268 = test system: SF-268
# HOP-62 = test system: HOP-62
# OVCAR-4 = test system: OVCAR-4
# TK-10 = test system: TK-10
# UO-31 = test system: UO-31
# MDA-MB-231 = test system: MDA-MB-231
# NCI-H522 = test system: NCI-H522
# BT-549 = test system: BT-549
# PC-3 = test system: PC-3
# HCC 2998 = test system: HCC 2998
# HOP-92 = test system: HOP-92
# SK-MEL-5 = test system: SK-MEL-5
# COLO 205 = test system: COLO 205
# MCF7 = test system: MCF7
# 786-0 = test system: 786-0
# SNB-19 = test system: SNB-19
# OVCAR-3 = test system: OVCAR-3
# EKVX = test system: EKVX
# IGROV-1 = test system: IGROV-1
# SK-MEL-2 = test system: SK-MEL-2
# U-251 = test system: U-251
# OVCAR-5 = test system: OVCAR-5
# UACC-257 = test system: UACC-257
# SK-OV-3 = test system: SK-OV-3
smiles,measurement,setting,value
CNn1c(-c2ccc(C)cc2)n[nH]c1=O,GI50,A498,> 100 µM (inactive)
same,GI50,LOX IMVI,> 100 µM (inactive)
same,GI50,NCI-H23,> 100 µM (inactive)
same,GI50,KM12,> 100 µM (inactive)
same,GI50,NCI-H226,> 100 µM (inactive)
same,GI50,NCI-H460,> 100 µM (inactive)
same,GI50,M14,> 100 µM (inactive)
same,GI50,ACHN,> 100 µM (inactive)
same,GI50,SW-620,> 100 µM (inactive)
same,GI50,T47D,> 100 µM (inactive)
same,GI50,NCI/ADR-RES,> 100 µM (inactive)
same,GI50,RXF 393,> 100 µM (inactive)
same,GI50,CAKI-1,> 100 µM (inactive)
same,GI50,MOLT-4,> 100 µM (inactive)
same,GI50,SN12C,> 100 µM (inactive)
same,GI50,SF-295,> 100 µM (inactive)
same,GI50,HT-29,> 100 µM (inactive)
same,GI50,Malme-3M,> 100 µM (inactive)
same,GI50,UACC-62,> 100 µM (inactive)
same,GI50,OVCAR-8,> 100 µM (inactive)
same,GI50,Hs-578T,> 100 µM (inactive)
same,GI50,A549,> 100 µM (inactive)
same,GI50,HCT-15,> 100 µM
same,GI50,CCRF-CEM,92 µM (inactive)
same,GI50,RPMI-8226,> 100 µM (inactive)
same,GI50,SR,68.5 µM (inactive)
same,GI50,SF-539,> 100 µM (inactive)
same,GI50,HCT-116,> 100 µM (inactive)
same,GI50,MDA-MB-435,> 100 µM (inactive)
same,GI50,K562,55.8 µM (inactive)
same,GI50,SF-268,> 100 µM (inactive)
same,GI50,HOP-62,> 100 µM (inactive)
same,GI50,OVCAR-4,> 100 µM (inactive)
same,GI50,TK-10,> 100 µM (inactive)
same,GI50,UO-31,> 100 µM (inactive)
same,GI50,MDA-MB-231,> 100 µM (inactive)
same,GI50,NCI-H522,> 100 µM (inactive)
same,GI50,BT-549,> 100 µM (inactive)
same,GI50,PC-3,> 100 µM (inactive)
same,GI50,HCC 2998,> 100 µM (inactive)
same,GI50,HOP-92,> 100 µM (inactive)
same,GI50,SK-MEL-5,> 100 µM (inactive)
same,GI50,COLO 205,> 100 µM (inactive)
same,GI50,MCF7,> 100 µM (inactive)
same,GI50,786-0,> 100 µM (inactive)
same,GI50,SNB-19,> 100 µM (inactive)
same,GI50,OVCAR-3,> 100 µM (inactive)
same,GI50,EKVX,> 100 µM (inactive)
same,GI50,IGROV-1,> 100 µM (inactive)
same,GI50,SK-MEL-2,> 100 µM (inactive)
same,GI50,U-251,> 100 µM (inactive)
same,GI50,OVCAR-5,> 100 µM (inactive)
same,GI50,UACC-257,> 100 µM (inactive)
same,GI50,SK-OV-3,> 100 µM (inactive)
